This is an account of results in PubChem BioAssay (NCI).

Among the test systems are HCC-2998 colon; K-562 leukemia; MALME-3M melanoma; MOLT-4 leukemia; NCI-H226 lung; SK-MEL-5 melanoma; MDA-MB-435; PC-3 prostate; T-47D breast; A498 renal; BT-549 breast.
Common to all, as to test: NCI tumour cell line growth inhibition, 48 h

“And” between values parts separate entries of the source, which are not always exact repeats. Equal entries are not always repeated.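 All cell lines were grown in 96-well plates and treated with compound for 48 hours. The concentration for 50% growth inhibition is given as GI50. At the TGI there is no net growth.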

With `COc1cccc(NC(=O)CC(=O)NN2C(=O)/C(=C/c3ccc(N(CCC#N)CCC#N)cc3)N=C2c2cc([N+](=O)[O-])ccc2Cl)c1`, the TGI was over 100 µM in the assay with HCC-2998 colon; over 100 µM in the assay with K-562 leukemia; over 100 µM in the assay on MALME-3M melanoma; over 100 µM with MOLT-4 leukemia; 30.1 µM in the assay with NCI-H226 lung; over 100 µM with SK-MEL-5 melanoma.
Turning to `C/C(=C\C(=N\NC(=N)N)c1ccccc1)c1ccccc1`, the TGI in the assay with HCC-2998 colon was determined as 1.86 µM; in the assay with K-562 leukemia it was 3.88 µM; in the assay with MALME-3M melanoma, 3.5 µM; in the assay on MDA-MB-435, 2.97 µM; in the assay with MOLT-4 leukemia it was 2.04 µM; in the assay on NCI-H226 lung it was 13 µM. Besides, the TGI turned out to be 3.21 µM in the assay on PC-3 prostate, 0.76 µM in the assay on SK-MEL-5 melanoma and 2.81 µM with T-47D breast.
As to `COc1ccc(N=Cc2ccc(N(CCC#N)S(=O)(=O)c3ccccc3)cc2C)cc1`, the TGI is over 100 µM in the assay on HCC-2998 colon; over 100 µM in the assay on K-562 leukemia; 93.7 µM in the assay on MALME-3M melanoma; over 100 µM in the assay with MOLT-4 leukemia; over 100 µM in the assay on NCI-H226 lung; over 100 µM with SK-MEL-5 melanoma.
Take `C[C@H]1CCC/C=C/[C@@H]2C[C@H](O)C[C@H]2[C@H](O)/C=C/C(=O)O1`: the GI50 is under 0.0149 µM with A498 renal; 0.0623 µM and 0.054 µM in the assay with HCC-2998 colon; 0.236 µM in the assay with K-562 leukemia; < 0.0173 µM and 0.0369 µM and 0.0449 µM with MDA-MB-435; < 0.0165 µM and 0.0481 µM and 0.0564 µM in the assay on MOLT-4 leukemia; < 0.0202 µM and 0.0475 µM and 0.0478 µM in the assay on PC-3 prostate. Further, the GI50 in the assay on SK-MEL-5 melanoma was under 0.0122 µM; with T-47D breast, 0.0809 µM and 0.619 µM. The TGI with A498 renal was 0.0821 µM and 0.0376 µM; in the assay with HCC-2998 colon it was 0.674 µM and 0.322 µM; in the assay on MALME-3M melanoma it was 0.0745 µM and 0.0253 µM and 0.0382 µM; in the assay on NCI-H226 lung it was 0.0954 µM and 0.148 µM and 0.0478 µM; with SK-MEL-5 melanoma, < 0.01 µM and 0.0127 µM and 0.0164 µM.
Consider `O=c1c(-c2ccccc2)c(SCCN2CCOCC2)n(-c2ccccc2)c(=S)n1-c1ccccc1`, for which the TGI in the assay with A498 renal, in the assay with BT-549 breast, in the assay on HCC-2998 colon, in the assay with K-562 leukemia, with MALME-3M melanoma and in the assay with MDA-MB-435 was over 100 µM in each case. The TGI with MOLT-4 leukemia, in the assay on NCI-H226 lung, with PC-3 prostate and in the assay on SK-MEL-5 melanoma was over 100 µM each time.
Regarding `CCCCCCCCCCCCCCCCCC(=O)OCC1OC(OC)C(NC(=O)N(CCCl)N=O)C(O)C1O` (centres undefined), the TGI is over 100 µM with HCC-2998 colon; over 100 µM with K-562 leukemia; 78.3 µM in the assay with MALME-3M melanoma; 57.3 µM in the assay on MOLT-4 leukemia; 86.8 µM in the assay with NCI-H226 lung; over 100 µM in the assay with SK-MEL-5 melanoma.
For the compound `O=C([CH-]C(=O)c1ccccc1)c1ccccc1.O=C([CH-]C(=O)c1ccccc1)c1ccccc1.O=C([CH-]C(=O)c1ccccc1)c1ccccc1.[Cl-].[Hf+4]`, the GI50 in the assay with A498 renal is 18.6 µM; with K-562 leukemia, 7.11 µM; with MOLT-4 leukemia, 11.1 µM; in the assay on NCI-H226 lung it was 13 µM; with SK-MEL-5 melanoma it was 11.1 µM. For the same compound, the TGI with A498 renal is 63 µM; with K-562 leukemia, over 100 µM; in the assay on MOLT-4 leukemia it was over 100 µM; with NCI-H226 lung, 54 µM; in the assay with SK-MEL-5 melanoma, 31.5 µM.
As to `COc1ccc(N=Nc2c(N)nn(C)c2N)cc1`, the TGI in the assay with A498 renal, with K-562 leukemia, in the assay on MALME-3M melanoma, in the assay on MOLT-4 leukemia, in the assay on NCI-H226 lung and in the assay with SK-MEL-5 melanoma was over 100 µM throughout.
For `CCCCCCCCCCCCSC(=S)c1c(C)[nH]n(CCCCCCCCCCCC)c1=O`, the TGI in the assay with A498 renal, with HCC-2998 colon, in the assay on K-562 leukemia, in the assay on MALME-3M melanoma, in the assay with MOLT-4 leukemia and in the assay with NCI-H226 lung was over 100 µM each time. Further, the TGI in the assay with SK-MEL-5 melanoma is over 100 µM.
As for `O=C(CSSCC(=O)OCCS(=O)(=O)Nc1ccc(Br)cc1)OCCS(=O)(=O)Nc1ccc(Br)cc1`, the TGI in the assay on A498 renal is 39.8 µM; in the assay with HCC-2998 colon, 25.9 µM; with K-562 leukemia, over 100 µM; in the assay on MALME-3M melanoma, 22.8 µM; with MOLT-4 leukemia it was 15.4 µM; with SK-MEL-5 melanoma, 26 µM.
In the case of `CCOC(=O)/C(=C\NC(C)(C)CO)c1nc2ccccc2[nH]1`, the TGI in the assay on A498 renal, in the assay with BT-549 breast, in the assay on HCC-2998 colon, with K-562 leukemia, in the assay with MALME-3M melanoma and in the assay with MDA-MB-435 was over 100 µM throughout. Further, the TGI in the assay on MOLT-4 leukemia and with SK-MEL-5 melanoma was over 100 µM each time.
`CN1NC(c2ccccc2)=C(C#N)C(=O)CC1c1ccc(F)cc1` (centres undefined): the TGI in the assay on A498 renal, in the assay with HCC-2998 colon, in the assay with MALME-3M melanoma, with MOLT-4 leukemia, in the assay on NCI-H226 lung and with SK-MEL-5 melanoma was over 100 µM each time.
As for `O=C(NC(Cc1ccc(Cl)cc1)C(=O)O)c1ccc(I)cc1` (centres undefined), the TGI with A498 renal, with K-562 leukemia, in the assay with MALME-3M melanoma, in the assay with MOLT-4 leukemia, in the assay on NCI-H226 lung and in the assay with SK-MEL-5 melanoma was over 100 µM each time.
